PubChem BioAssay (NCI)
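The compound was tested at five concentrations on cells cultured in 96-well plates, with a 48-hour exposure period. TGI: total growth inhibition.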 Where a SMILES comes first, the peptide text is derived from it. [ ]: non-standard residue; d: D form. The star is where a group is joined. ξ: configuration not given here. NMeY = CN[C@@H](Cc1ccc(O)cc1)C(=O)O; Cbz = O=C(OCc1ccccc1)*; ξA = CC(N)C(=O)O

What was measured:
Experiment in all cases: inhibition of tumour cell growth, NCI panel, 48 h
SK-MEL-28 melanoma = test system: SK-MEL-28 melanoma
SNB-19 CNS = test system: SNB-19 CNS
786-0 renal = test system: 786-0 renal
HOP-62 NSCLC = test system: HOP-62 NSCLC
UO-31 renal = test system: UO-31 renal
HCT-116 colon = test system: HCT-116 colon
MDA-MB-435 = test system: MDA-MB-435
TK-10 renal = test system: TK-10 renal
HCC-2998 colon = test system: HCC-2998 colon
DU-145 prostate = test system: DU-145 prostate

Measured: TGI

CCOC(=O)/C=C(/C(=O)OCC)n1ccc(=O)n(Cc2cn(CCCCOC(C)=O)nn2)c1=O
> 100 µM: all assays above

CN1C(=O)C(=Cc2ccc(Br)cc2)C(=O)N(C)C1=O
> 100 µM: all assays above

COC(C)=NCCC1=CCCCC1
> 100 µM: all assays above

c1ccc2c(c1)CCN1CCc3ccccc3C1C2 (stereo unspecified)
68.9 µM: UO-31 renal
> 100 µM: all other assays above

O=C1CSC(c2ccccc2)N1c1ccc(-c2ccc(-n3c(-c4ccccc4)nc4ccccc4c3=O)cc2)cc1 (stereo unspecified)
not listed: HCT-116 colon
> 100 µM: all other assays above

COc1ccc(/C=C2/SC(=Nc3ccccc3)N(NC(=O)Cc3ccccc3)C2=O)cc1
> 100 µM: all assays above

COc1ccc(C[C@H]2COC(=O)[C@@H]2Cc2ccc(Br)cc2)cc1OC
> 89.7 µM: HCT-116 colon
24.2 µM: UO-31 renal
> 84.3 µM: DU-145 prostate
55.7 µM: MDA-MB-435
> 94.2 µM: TK-10 renal
> 61.8 µM: SNB-19 CNS
> 100 µM: all other assays above

Cc1cn(C2CC(O)C(Cn3nncc3Cn3cnc4c(N)ncnc43)O2)c(=O)[nH]c1=O (stereo unspecified)
> 100 µM: all assays above

COc1cc(-c2nc(N)c(C#N)c3c2CCS(=O)(=O)c2ccc(C)cc2-3)cc(OC)c1OC
29.5 µM: SNB-19 CNS
70 µM: TK-10 renal
> 100 µM: all other assays above

Cc1cc2c(cc1Cl)SC(NNCCO)=NS2(=O)=O
> 100 µM: all assays above

CC1=CC2(C)C=C[C@@H]1C(=O)[C@@]1(C)CC[C@@](O)(C(C)C)[C@H]1CC2
33.3 µM: 786-0 renal
34.6 µM: HCC-2998 colon
> 100 µM: TK-10 renal
72.1 µM: DU-145 prostate
41.7 µM: SK-MEL-28 melanoma
32.2 µM: HCT-116 colon
35.2 µM: HOP-62 NSCLC
31.4 µM: UO-31 renal
43.2 µM: MDA-MB-435
65.7 µM: SNB-19 CNS

O=c1ccn(C/C=C/c2ccccc2)c(=S)n1C/C=C/c1ccccc1
> 100 µM: all assays above

CN(C)c1n2c3ccc([N+](=O)[O-])cc3n3c(N(C)C)[n+]4ccccc4c3c2c2cccc[n+]12
> 100 µM: all assays above

COc1ccc(C[C@@H](C(=O)N[C@@H](C)C(N)=O)N(C)C(=O)[C@@H]2CCCN2C(=O)[C@H](CC(C)C)NC(=O)C(C)NC(=O)OCc2ccccc2)cc1 (stereo partly specified) (Cbz-[ξA]LP[NMeY](Me)A-NH2)
> 100 µM: all assays above

Cc1n[nH]c(=O)n1/N=C/c1ccco1
not listed: TK-10 renal
> 100 µM: all other assays above

COc1ccc(/C(C)=C2\CCCN(Cc3ccccc3)C2)cc1
44.1 µM: UO-31 renal
50.6 µM: SNB-19 CNS
51.6 µM: MDA-MB-435
33.9 µM: 786-0 renal
58.4 µM: SK-MEL-28 melanoma
44.7 µM: HCC-2998 colon
> 100 µM: TK-10 renal | DU-145 prostate
33.6 µM: HOP-62 NSCLC

CCC1=CC(OCc2ccccc2)C(CCN(Cc2ccccc2)C(=O)OCc2ccccc2)C1 (stereo unspecified)
30.2 µM: DU-145 prostate
37.1 µM: HOP-62 NSCLC
35.8 µM: HCC-2998 colon
32.7 µM: MDA-MB-435
40.1 µM: 786-0 renal
37.8 µM: SK-MEL-28 melanoma
30.9 µM: SNB-19 CNS | TK-10 renal
28.3 µM: UO-31 renal
